Laboratory results reported in patent US20220153732A1, “PROTEIN SECRETION INHIBITORS” (KEZAR LIFE SCIENCES, priority 2019, published 2022).
Where two headings read alike, the source gives them in different places.

How the values were obtained:
Format in all cases: cell-based
[1] = test system: human multiple myeloma cell line NCI-H929; assay: H929 Cell Viability Assay; settings: read-out: 48 hr H929 Viability Celltiter-Glo: Mean EC50
Description: Plates were incubated at 37° C., 5% CO2 for 48 hours. After 48 hours, Celltiter-Glo® (Promega) was added to each well and luciferase signal was quantified using Tecan Infinite M1000 Pro for cell viability determination.
For chemical structures that include one or more stereoisomers, but are illustrated without indicating stereochemistry, the assay data refers to a mixture of stereoisomers.

[2] = test system: human multiple myeloma cell line U266B1; assay: U266 Cell Viability Assay; settings: read-out: 48 hr U266 Viability Celltiter-Glo: Mean EC50
Outline: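 U266B1 myeloma cells treated with compound dilutions in DMSO/media for 48 h at 37 °C, 5% CO2. Viability read by CellTiter-Glo luminescence. Stereochemically undefined structures were tested as stereoisomer mixtures.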

[3] = test system: HER3-ss+4aa/Gaussia Luciferase; assay: Dox-Induced Her3-ss-Gluc Assay; settings: 24 hr doxycycline induction, 293FRT/TO cells, Gaussia luciferase signal; read-out: 24 hr Dox Inducible Her3(ss + 4)Gluc 293FRT/TO: Mean IC50
Outline: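 Stable T-REx cell line carrying a doxycycline-regulated HER3-ss+4aa/Gaussia luciferase insert, plated the day before assay. Compound dilutions in DMSO/media with doxycycline added, then incubated at 37° C., 5% CO2. Stereoisomer mixtures tested where stereochemistry is not drawn.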

[4] = test system: TNFα-FL/Gaussia Luciferase; assay: Dox Induced TNFα-FL-Gluc Assay; settings: 24 hr doxycycline induction, 293FRT/TO cells, Gaussia luciferase signal; read-out: 24 hr Dox Inducible TNFaFLGluc 293FRT/TO: Mean IC50
Outline: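 A stable T-REx cell line carrying doxycycline-inducible TNFα-FL/Gaussia luciferase was plated the day before assay. Compound dilutions in DMSO/media containing doxycycline were then added and incubated at 37° C, 5% CO2.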

[5] = test system: PD1-ss+10aa/Gaussia Luciferase; assay: Dox-Induced PD1-ss-Gluc Assay; settings: 24 hr doxycycline induction, 293FRT/TO cells, Gaussia luciferase signal; read-out: 24 hr Dox Inducible PD1ssGluc 293FRT/TO: Mean IC50
Outline: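 Stable cell line carrying PD1-ss+10aa/Gaussia luciferase cDNA under T-REx (doxycycline-inducible) control, plated the day before assay. Compound dilutions in DMSO/media containing doxycycline added and incubated at 37° C, 5% CO2. Undefined stereocentres: data refer to stereoisomer mixtures.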

[6] = test system: IL-2-FL/Gaussia Luciferase; assay: Dox Induced IL2-FL-Gluc Assay; settings: 24 hr doxycycline induction, 293FRT/TO cells, Gaussia luciferase signal; read-out: 24 hr Dox Inducible IL2FLGIuc 293FRT/TO: Mean IC50
Outline: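 Stable T-REx cell line expressing doxycycline-inducible IL-2-FL/Gaussia luciferase cDNA, plated the day before assay. Compound dilutions in DMSO/media containing doxycycline added and incubated at 37° C., 5% CO2. Unspecified stereochemistry means data refer to a stereoisomer mixture.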

[7] = 48 hr, NCI-H929 cells, Celltiter-Glo
[8] = U-266, 48 hr, U266B1 cells, Celltiter-Glo

Structure (SMILES) | EC50 [1, 7] [µM] | EC50 [2, 8] [µM] | IC50 [3] [µM] | IC50 [4] [µM] | IC50 [5] [µM] | IC50 [6] [µM] | EC50 ([1]; NCI-H929, 48 h) [µM] | EC50 ([2]; U-266, 48 h) [µM]
CO[C@H]1CC[C@H](/C=C/c2csc(NC(=O)c3cccn3Cc3ccncc3)n2)CC1 [Compound A253, N-(4-(2-((1r,4r)-4-methoxycyclohexyl)vinyl)thiazol-2-yl)-1-(pyridin-4-ylmethyl)-1H-pyrrole-2-carboxamide] | 10.8 | 15.6 | 0.672 | 4.2 | 0.22 | 1.58 |  | 
CO[C@H]1CC[C@@H](/C=C/c2csc(NC(=O)c3cccn3Cc3ccncc3)n2)CC1 [Compound A254, N-(4-(2-((1s,4s)-4-methoxycyclohexyl)vinyl)thiazol-2-yl)-1-(pyridin-4-ylmethyl)-1H-pyrrole-2-carboxamide] | 4.1 | 4.13 | 0.189 | 1.53 | 0.074 | 0.554 |  | 
O=C(Nc1nc(C2CCC(c3ccccc3)CC2)cs1)c1cccn1Cc1ccncc1 (stereo not drawn) [Compound A255] | 7.21 | 18.1 | 0.25 | 1.33 | 0.102 | 0.477 |  | 
CC(C)OC(C)(C)c1csc(NC(=O)c2cccn2Cc2c(F)cncc2F)n1 [Compound A256, 1-((3,5-difluoropyridin-4-yl)methyl)-N-(4-(2-isopropoxypropan-2-yl)thiazol-2-yl)-1H-pyrrole-2-carboxamide] | > 25 | > 25 | 4.04 | > 25 | 2.15 | 2.87 |  | 
CC(C)(OCc1ccccn1)c1csc(NC(=O)c2cccn2Cc2ccncc2)n1 [Compound A257] | > 25 | > 25 | 4.01 | 24.8 | 1.88 | 3.63 |  | 
O=C(Nc1nc(C2=CCN(c3ccccc3)CC2)cs1)c1cccn1Cc1ccncc1 [Compound A258] | 23.8 | > 25 | 6.4 | > 25 | 0.701 | 14.5 |  | 
O=C(Nc1nc(C2=CCN(Cc3ccccc3)CC2)cs1)c1cccn1Cc1ccncc1 [Compound A259] |  |  | 7.11 | > 25 | 0.516 | 10.5 | > 25 | > 25
CC(C)(COc1ccccn1)c1csc(NC(=O)c2cccn2Cc2ccncc2)n1 [Compound A260] | 10.9 | > 25 | 0.974 | 4.61 | 0.478 | 0.95 |  | 
O=C(Nc1nc(N2CCC(c3ccccc3)CC2)cs1)c1cccn1Cc1ccncc1 [Compound A261] | > 25 | > 25 | 2.02 | > 25 | 2.25 | > 25 |  | 
CC(C)(CCc1ccccn1)c1csc(NC(=O)c2cccn2Cc2ccncc2)n1 [Compound A262] | > 25 | > 25 | 3.14 | 24.2 | 1.46 | 3.12 |  | 
O=C(Nc1nc(C2(OCc3ccccc3)CC2)cs1)c1cccn1Cc1ccncc1 [Compound A263, N-(4-(1-(benzyloxy)cyclopropyl)thiazol-2-yl)-1-(pyridin-4-ylmethyl)-1H-pyrrole-2-carboxamide] | 21.5 | > 25 | 0.958 | 5.22 | 0.381 | 1.04 |  | 
O=C(Nc1nc(N2CCCCC2)cs1)c1cccn1Cc1ccncc1 [Compound A264] | > 25 | > 25 | > 25 | > 25 | > 25 | > 25 |  | 
O=C(Nc1nc(N2CCCC(c3ccccc3)C2)cs1)c1cccn1Cc1ccncc1 (stereo not drawn) [Compound A265] | > 25 | > 25 | > 25 | > 25 | 9.06 | 7.3 |  | 
O=C(Nc1nc(N2CCN(c3ccccc3)CC2)cs1)c1cccn1Cc1ccncc1 [Compound A266] | > 25 | > 25 | 9 | > 25 | 6.25 | > 25 |  | 
O=C(Nc1nc(N2CCc3ccccc3C2)cs1)c1cccn1Cc1ccncc1 [Compound A267] | > 25 | > 25 | > 25 | > 25 | 15.4 | > 25 |  | 
O=C(Nc1nc(C2CC(c3ccccc3)C2)cs1)c1cccn1Cc1ccncc1 (stereo not drawn) [Compound A268] | 7.29 | > 25 | 0.129 | 0.821 | 0.052 | 0.291 |  | 
COc1ccc(/C=C/c2csc(NC(=O)c3cccn3Cc3ccncc3)n2)nc1 [Compound A269, N-(4-(2-(5-methoxypyridin-2-yl)vinyl)thiazol-2-yl)-1-(pyridin-4-ylmethyl)-1H-pyrrole-2-carboxamide] | > 21.6 | > 25 | 1.57 | 20.3 | 0.013 | 2.92 |  | 
O=C(Nc1nc([C@H]2CCC[C@@H](c3ccccc3)C2)cs1)c1cccn1Cc1ccncc1 [Compound A270] | 10.4 | > 25 | 0.463 | 1.74 | 0.161 | 0.599 |  | 
O=C(Nc1nc([C@@H]2CCC[C@@H](c3ccccc3)C2)cs1)c1cccn1Cc1ccncc1 [Compound A271] | 15.5 | > 25 | 0.912 | 2.87 | 0.316 | 0.951 |  | 
O=C(Nc1nc(/C=C/c2ccc3c(n2)OCO3)cs1)c1cccn1Cc1ccncc1 [Compound A272] | > 25 | > 25 | 1.72 | > 25 | 0.261 | > 25 |  | 
O=C(Nc1nc(N2CCC(c3ccccc3)C2)cs1)c1cccn1Cc1ccncc1 (stereo not drawn) [Compound A273] | > 25 | > 25 | > 25 | > 25 | > 25 | > 25 |  | 
O=C(Nc1nc(/C=C/c2cnc3c(c2)OCO3)cs1)c1cccn1Cc1ccncc1 [Compound A274] | 23.9 | > 25 | 2.55 | 22.3 | 0.363 | 3.74 |  | 
O=C(Nc1nc([C@H]2CCCN2c2ccccc2)cs1)c1cccn1Cc1ccncc1 [Compound A275] | 1.47 | > 25 | 0.032 | 0.147 | 0.015 | 0.029 |  | 
O=C(Nc1nc([C@@H]2CCCN2c2ccccc2)cs1)c1cccn1Cc1ccncc1 [Compound A276] | 19.4 | > 25.8 | 0.859 | 2.47 | 0.287 | 1.5 |  | 
O=C(Nc1nc([C@@H]2CCCN2Cc2ccccc2)cs1)c1cccn1Cc1ccncc1 [Compound A277] | 18.7 | > 25 | 0.819 | 4.06 | 0.325 | 0.769 |  | 
O=C(Nc1nc([C@H]2CCCN2Cc2ccccc2)cs1)c1cccn1Cc1ccncc1 [Compound A278] | > 23.9 | > 25 | 1.13 | 5 | 0.538 | 1.27 |  | 
O=C(Nc1nc([C@H]2CCN(Cc3ccccc3)C2)cs1)c1cccn1Cc1ccncc1 [Compound A279] | > 25 | > 25 | 4.2 | > 25 | 1.14 | 4.97 |  | 
CC(C)OC(C)(C)c1csc(NC(=O)c2ccccc2Cc2ccncc2)n1 [Compound A280, N-(4-(2-isopropoxypropan-2-yl)thiazol-2-yl)-2-(pyridin-4-ylmethyl)benzamide] | > 25 | > 25 | > 25 | > 25 | 12.7 | > 25 |  | 
O=C(Nc1nc(C2Cc3ccccc3C2)cs1)c1cccn1Cc1ccncc1 [Compound A281] | 11 | > 25 | 0.817 | 1.95 | 0.244 | 1.16 |  | 
